Test results: the supplement of paper PMC10290057
Where a name gives a salt, the structure may show the parent alone.

Tested on: HCT116
Assay: efficacy (fitted maximal change in viability relative to DMSO control); higher = less cytotoxic (negative = loss of viability)
Conditions: 48 h
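Also: Luminescence-based viability readout, five doses per compound, normalized against on-plate DMSO and empty-well controls, followed by dose-response curve fitting for every drug.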

Compound	efficacy [%]
C[N]1N=CN=C1[C@@H]2[C@H](NC3=CC(=CC4=C3\C2=N/NC4=O)F)C5=CC=C(F)C=C5 [BMN-673]	-16.8
CCN1CCN(C(=O)N[C@@H](C(=O)N[C@H]2[C@H]3SC\C(=C(/N3C2=O)C(O)=O)CSC4=NN=N[N]4C)C5=CC=C(O)C=C5)C(=O)C1=O [Cefoperazone (sodium salt)]	-15.8
CC(C)(CNC(=O)c1cccc(-c2noc(C(F)(F)F)n2)c1)c1coc(-c2ccccc2)n1 [TMP-195]	-21.4
OC1=CC2=C(C(=C1)O)C(=O)\C(=C(/O2)C3=CC(=C(O)C=C3)O)O [Quercetin]	-10.2
O=C(NOCCO)c1cc(CN2OCCCC2=O)c(F)c(F)c1Nc1ccc(I)cc1F	-60.6
COc1cccc2c1C(=O)c1c(O)c3c(c(O)c1C2=O)C[C@@](O)(C(C)=O)C[C@@H]3O[C@H]1C[C@H](N)[C@H](O)[C@H](C)O1 [Daunorubicin]	-77.4
CCOC(=O)\C1=C\[C@@H](OC(CC)CC)[C@H](NC(C)=O)[C@@H](N)C1 [Oseltamivir phosphate]	13
CC(=O)OCC(CCn1cnc2cnc(N)nc21)COC(C)=O [Famciclovir]	-14.2
C=CCN(/C=C1\C(=O)O[C@@H](COC)[C@]2(C)C1=C(O)C(=O)C1=C2[C@@H](OC(C)=O)C[C@]2(C)C(=O)CC[C@H]12)CC=C [PX-866]	-20.5
CCCN[S+](=O)([O-])Nc1ncnc(OCCOc2ncc(Br)cn2)c1-c1ccc(Br)cc1 [Macitentan]	-63.7
O=C(CCCCCCC(=O)Nc1ccc([C@H]2O[C@@H](CSc3nc(-c4ccccc4)c(-c4ccccc4)o3)C[C@@H](c3ccc(CO)cc3)O2)cc1)NO [Tubacin]	-23.7
Cc1cc(C)cc(Oc2ccc(CNC(=O)[C@H](C)N)cc2C)c1 [SGC-2085]	-101
F\C1=C\N(C2CCCO2)C(=O)NC1=O (stereo not given) [Tegafur]	-8.62
CC(C(C)N1CC(=O)NC(=O)C1)N1CC(=O)NC(=O)C1 (stereo not given) [ICRF-193]	-32.2
CNC(=O)c1ccc2cc(C3(O)CCn4cncc43)ccc2c1 (stereo not given) [Orteronel]	-5.91
N[C@@H]1C[C@H]1c1ccccc1 [Tranylcypromine]	-9.58
Cn1c(=O)c2c(ncn2CC2OCCO2)n(C)c1=O [Doxofylline]	-7.38
CCCCC(=O)O[C@@]1([C@@H](C)C[C@H]2[C@@H]3CCC/4=C/C(=O)/C=C\[C@]4(C)[C@@]3(F)[C@@H](O)C[C@]12C)C(=O)CO [Betamethasone valerate]	-7.12
CN1C(=O)N(c2cc(Cl)cc(Cl)c2)C(=O)[C@]12CN(Cc1cc(C(=O)O)cs1)C[C@H]2c1ccc(C#N)cc1	-6.34
O=[N+]([O-])c1cncn1CCN1CCOCC1 [Nimorazole]	-10.3
CN(C)[C@H]\1[C@@H]2C[C@H]3C(=C(O)\[C@]2(O)C(=O)\C(=C1O)C(N)=O)/C(=O)C4=C(O)C=CC=C4[C@@]3(C)O [Tetracycline hydrochloride]	8.73
CCOC(=O)Nc1ccc(NCc2ccc(F)cc2)nc1N [Flupirtine maleate]	8.9
Oc1ccc(C2CNCCc3c2cc(O)c(O)c3Cl)cc1 (stereo not given) [Fenoldopam]	-23.6
NC(CC1c2ccccc2Oc2ccccc21)(C(=O)O)C1CC1C(=O)O (stereo not given)	-10.8
O=C(N[C@H]1CN2CCC1CC2)c1ccc(Cl)cc1	-55.8

Compound	efficacy [%]
CC(C)c1c2cc(-c3ccnc(N[C@H]4CC[C@H](NC5CCOCC5)CC4)n3)ccc2nn1C	-72.3
CCCCN(CCCC)CC(O)c1cc(Cl)cc2c1-c1ccc(Cl)cc1/C2=C/c1ccc(Cl)cc1 (stereo not given) [Lumefantrine]	-26.5
C[C@@H]\1CC(=O)N\N=C1C2=CC=C(NN=C(C#N)C#N)C=C2 [Levosimendan]	-64.6
O=C(Nc1ccc(-c2ccnc(Nc3ccc(N4CCOCC4)cc3)n2)cc1)C1CCCN1 (stereo not given) [XL-019]	-19.1
CCN(C1CCOCC1)C2=C(C)C(=CC(=C2)C3=CC=C(CN4CCOCC4)C=C3)C(=O)NC\C5=C(C)\C=C(C)/NC5=O [Tazemetostat]	-59
Cc1cccc(C)c1NC(=O)CN1CCCC1=O [Nefiracetam]	-20.6
Oc1ccc2ccccc2c1SSc1c(O)ccc2ccccc12 [IPA-3]	-115
C[C@]1(c2nc3c(C(N)=O)cccc3[nH]2)CCCN1 [Veliparib]	-31.3
CC(c1cc2ccccc2s1)N(O)C(N)=O (stereo not given) [Zileuton]	-26.8
NC(=S)N/N=C/c1ncccc1N [Triapine]	-21.4
CCCOc1ccc(C(=O)OCCN(CC)CC)cc1N [Proparacaine]	-20.7
COC1=CC2=C(C=C1OCCCN3CCCC3)\N=C(N)/C24CCC4 [A-366]	8
COC(=O)N1CC2(CC2)C[C@H](C(=O)NO)[C@H]1C(=O)N1CCN(c2ccccc2)CC1 [Aderbasib]	-17
CC1=CC/2=C(C=C1C)N(C[C@@H](O)[C@@H](O)[C@@H](O)CO)C/3=N/C(=O)NC(=O)C3=N2 [Riboflavin]	-9.8
CC(COc1ccccc1)N(CCCl)Cc1ccccc1 (stereo not given) [Phenoxybenzamine hydrochloride]	-19.8
O=C1\C=C(/OC2=C1C=CC=C2C3=CC=CC=C3)N4CCOCC4	-24.3
O=C1NC(=O)/C(=C/c2ccc3nccnc3c2)S1	-27.3
Cc1ccc(O)c(C(CCN(C(C)C)C(C)C)c2ccccc2)c1.Cl (stereo not given) [Tolterodine tartrate]	-19.8
CCC(=O)O[C@@]1([C@H](C)C[C@H]2[C@@H]3C[C@H](F)\C4=C\C(=O)\C=C/[C@]4(C)[C@@]3(F)[C@@H](O)C[C@]12C)C(=O)SCF [Fluticasone propionate]	-11.6
CCN(CC)CCOc1ccc(Cc2ccccc2)cc1 [Tesmilifene hydrochloride]	-27
Clc1cc2c(NC3CCCC3)nnc(-c3ccncc3)c2cc1Cl [A-196]	14.4
CN[C@@H](C)[C@H]1[C@H](O)C[C@@]2(C)[C@@H]3CC[C@H]4C(C)(C)[C@@H](NC)CC[C@@]45C[C@@]35CC[C@]12C [Cyclovirobuxin D]	-29.5
OC[C@H]1O[C@H]([C@H](O)[C@@H](O)[C@@H]1O)C2=C(O)C=CC3=C2O/C=C(C3=O)/C4=CC=C(O)C=C4 [Puerarin]	-15.8
CC(=O)OCC(=O)[C@@]12OC(C)(C)O[C@@H]1C[C@H]3[C@@H]4C[C@H](F)C/5=C/C(=O)/C=C\[C@]5(C)[C@@]4(F)[C@@H](O)C[C@]23C [Fluocinonide]	-12.9
COC1CCC(C(=O)c2ccc3nc4c(cc3c2)CCCO4)CC1 (stereo not given)	-17.2

Compound	efficacy [%]
CC(C)c1cnn2c(NCc3ccccc3)cc(NCCCCCCN)nc12 [BS-181]	-106
C[C@]12CC[C@@H]3c4ccc(O)cc4CC[C@H]3[C@@H]1C[C@@H](O)[C@@H]2O [Estriol]	-52.3
COc1cc(F)c(C(C)C)cc1-c1ccc(C(F)(F)F)cc1CN1C(=O)O[C@H](c2cc(C(F)(F)F)cc(C(F)(F)F)c2)[C@@H]1C [Anacetrapib]	-14.3
CC1(C)CC(=O)c2c(C(F)(F)F)nn(-c3ccc(C(N)=O)c(NC4CCC(OC(=O)CN)CC4)c3)c2C1 (stereo not given) [SNX-5422]	-57.9
CC(C)C[C@@H]1NC(=O)[C@@H](C(C)C)NC(=O)[C@@H]2CCCN2C(=O)[C@@H](CC(=O)O)NC(=O)[C@@H](Cc2c[nH]c3ccccc23)NC1=O [BQ-123]	-9.37
Cn1cc(C[C@@H](N)C(=O)O)c2ccccc21 [Indoximod]	-9.77
NCC/1=C/NC(=S)N1[C@H]2CCC3=C(F)C=C(F)C=C3C2 [Nepicastat hydrochloride]	-46.6
CC1=C(/C=C/C(C)=C/C=C/C(C)=C/C=C/C=C(C)/C=C/C=C(C)/C=C/C2=C(C)CCCC2(C)C)C(C)(C)CCC1 [beta-Carotene]	-21.3
CC(C)C/1=C(NC2=C(C=N[N]2C1=O)C#N)\C3=CC=CC=C3 [CPI-455]	-11.2
C\C1=C(/C)C(=O)\C(=C(\C)C1=O)C(CCCCCC(O)=O)C2=CC=CC=C2 (stereo not given) [Seratrodast]	-11.8
CC(C)CC(N(C)C)C1(c2ccc(Cl)cc2)CCC1 (stereo not given) [Sibutramine hydrochloride]	-45.3
FC1=CC=C(CN2\C=C/C=C(/C(=O)N[C@@H](COC3=CC4=C(NC(=O)N4)C=C3)C5=CC=CC=C5)C2=O)C=C1F [PDPK1 Inhibitor]	-72.1
O=C(O)CCCCN(CCc1ccccc1OCc1ccc(CCc2ccccc2)cc1)Cc1ccc(C(=O)O)cc1 [Cinaciguat]	-11.7
CCOCC(O)COc1ccc(NC(=O)CC[S+](C)C)cc1 (stereo not given) [Suplatast tosylate]	-20.9
C[C@@H]1[C@H](O)[C@@H](C)/C=C/C=C/C=C/C=C/C=C/C=C/C=C/[C@H](O[C@@H]2O[C@H](C)[C@@H](O)[C@H](N)[C@@H]2O)C[C@@H]2O[C@](O)(C[C@@H](O)C[C@@H](O)[C@H](O)CC[C@@H](O)C[C@@H](O)CC(=O)O[C@H]1C)C[C@H](O)[C@H]2C(=O)O [Amphotericin B]	-15.3
C[C@H](O)[C@H]1[C@@H]2[C@H](C)C(=C(\N2C1=O)C(O)=O)/S[C@@H]3CN[C@H](CN[S+](N)([O-])=O)C3 [Doripenem]	5.86
CN1CCN(c2ccc([N+](=O)[O-])c3no[n+]([O-])c23)CC1	-19.8
COc1ccc2cccc(CCNC(C)=O)c2c1 [Agomelatine]	-12.5
CN(NC(=O)CC(=O)NN(C)C(=S)c1ccccc1)C(=S)c1ccccc1 [Elesclomol (STA-4783)]	-39.3
CC(O)(C[S+](=O)([O-])c1ccc(F)cc1)C(=O)Nc1ccc(C#N)c(C(F)(F)F)c1 (stereo not given) [Bicalutamide]	-14.2
CC(C)C(=O)Nc1ccc([N+](=O)[O-])c(C(F)(F)F)c1 [Flutamide]	-14.3
Cc1cnc(C(=O)O)c[n+]1[O-] [Acipimox]	-8.25
Cc1cc(O)c2c(c1)C(=O)c1cccc(O)c1C2=O [Chrysophanol]	-8.65
C[S+](=O)([O-])OCCCCO[S+](C)(=O)[O-] [Busulfan]	-5.76
Cc1cc(O)c2c(c1)C(=O)c1cc(O)cc(O)c1C2=O [Emodin]	-31.9
